Measured values: ChEMBL document CHEMBL4811216, “Chemotherapy for human schistosomiasis: how far have we come? What's new? Where do we go from here?” (RSC Med Chem, 2020)
pEC50, pIC50: −log10 of the molar value. One block for each molecule: values may come before it.

Legend:
Schistosoma mansoni [1] = assay: Schistosomicidal-activity against Schistosoma mansoni LE assessed as seperation of worm couples at 25 uM measured within 120 hrs relative to control; assay type: functional
Schistosoma mansoni [2] = assay: Schistosomicidal-activity against Schistosoma mansoni Puerto-Rican schistosomula incubated for 7 days by trypan blue dye-exclusion test; assay type: functional, organism-based; conditions: 168 h
Schistosoma mansoni [3] = assay: Antischistosomal activity against Schistosoma mansoni Puerto-Rican infected in BALB/c mouse assessed as worm burden reduction at 300 mg/kg, po BID administered for 2 consecutive days by light microscopic method relative to control; assay type: functional; design: scale not given: the % may be the effect or the level left
Schistosoma mansoni [4] = assay: Antischistosomal activity against Schistosoma mansoni LE assessed as worm mortality at 20 uM incubated for 72 hrs by microscopic method relative to control; assay type: functional
Schistosoma mansoni [5] = assay: Antischistosomal activity against Schistosoma mansoni LE schistosomula assessed as reduction in worm vitality measured every 24 hrs by inverted microscopy; assay type: functional, organism-based
Schistosoma mansoni [6] = assay: Antischistosomal activity against adult Schistosoma mansoni LE assessed as worm mortality at 100 ug/ml incubated for 24 hrs by inverted microscopic method relative to control; assay type: functional
Schistosoma mansoni [7] = assay: Antischistosomal activity against adult Schistosoma mansoni LE assessed as reduction in worm vitality measured every 24 hrs by inverted microscopy; assay type: functional, organism-based
Schistosoma mansoni [8] = assay: Antischistosomal activity against adult Schistosoma mansoni incubated for 72 hrs by microscopic method; assay type: functional, organism-based
Schistosoma mansoni [9] = assay: Antischistosomal activity against Schistosoma mansoni NTS incubated for 72 hrs by microscopic method; assay type: functional, organism-based
Schistosoma mansoni [10] = assay: Antischistosomal activity against adult Schistosoma mansoni LE assessed as worm mortality at 100 ug/ml incubated for 72 hrs by inverted microscopic method relative to control; assay type: functional
Schistosoma japonicum = assay: Antischistosomal activity against Schistosoma japonicum at 10 uM incubated for 72 hrs by inverted microscopic method relative to control; assay type: functional
Schistosoma mansoni [11] = assay: Antischistosomal activity against Schistosoma mansoni infected in NMRI mouse assessed as worm burden reduction at 200 mg/kg, po administered as single dose measured after 16 to 18 days; assay type: functional, organism-based; design: scale not given: the % may be the effect or the level left; conditions: time 16-18 day
[12] = target: T1, Protein deacetylase HDAC6 (Homo sapiens, UniProt Q9UBN7); assay: Inhibition of human HDAC6 using ZMAL(Cbz-(Ac)Lys-AMC as substrate preincubated for 90 mins followed by trypsin addition and measured after 20 mins by fluorimetric method
T1 sequence (Q9UBN7 whole entry): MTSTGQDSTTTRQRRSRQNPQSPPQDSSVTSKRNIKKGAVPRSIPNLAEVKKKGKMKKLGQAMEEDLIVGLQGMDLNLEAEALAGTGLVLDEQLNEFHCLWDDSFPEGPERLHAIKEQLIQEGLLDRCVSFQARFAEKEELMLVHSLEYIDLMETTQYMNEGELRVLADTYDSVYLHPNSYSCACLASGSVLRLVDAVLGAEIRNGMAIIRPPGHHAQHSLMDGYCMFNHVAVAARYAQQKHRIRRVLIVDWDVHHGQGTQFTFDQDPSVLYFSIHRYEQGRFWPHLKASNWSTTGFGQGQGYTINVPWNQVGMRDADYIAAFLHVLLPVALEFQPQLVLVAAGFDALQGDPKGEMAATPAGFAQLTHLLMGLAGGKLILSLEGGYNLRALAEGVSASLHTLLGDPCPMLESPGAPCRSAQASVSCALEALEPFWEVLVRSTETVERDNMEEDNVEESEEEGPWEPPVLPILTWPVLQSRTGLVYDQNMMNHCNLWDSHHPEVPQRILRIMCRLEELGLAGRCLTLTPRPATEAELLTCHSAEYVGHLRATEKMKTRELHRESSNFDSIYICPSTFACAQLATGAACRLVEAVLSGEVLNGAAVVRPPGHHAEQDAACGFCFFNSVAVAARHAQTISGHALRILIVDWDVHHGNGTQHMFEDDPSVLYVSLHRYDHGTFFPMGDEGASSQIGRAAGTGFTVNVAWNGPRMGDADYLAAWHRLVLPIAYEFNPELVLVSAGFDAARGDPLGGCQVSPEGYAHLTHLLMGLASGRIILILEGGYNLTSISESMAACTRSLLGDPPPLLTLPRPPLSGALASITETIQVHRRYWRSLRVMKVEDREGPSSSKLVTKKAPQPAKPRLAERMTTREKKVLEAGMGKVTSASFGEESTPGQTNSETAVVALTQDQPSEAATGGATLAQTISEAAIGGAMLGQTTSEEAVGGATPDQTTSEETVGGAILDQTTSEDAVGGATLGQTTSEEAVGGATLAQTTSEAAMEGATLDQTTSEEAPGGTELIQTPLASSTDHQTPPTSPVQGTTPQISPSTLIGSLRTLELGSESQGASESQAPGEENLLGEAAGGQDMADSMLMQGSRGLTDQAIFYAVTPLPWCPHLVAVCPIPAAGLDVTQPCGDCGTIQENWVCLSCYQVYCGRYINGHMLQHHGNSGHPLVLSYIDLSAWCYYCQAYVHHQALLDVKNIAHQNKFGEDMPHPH

Schistosoma mansoni [13] = assay: Schistosomicidal-activity against Schistosoma mansoni schistosomula incubated for 48 hrs by Alamar Blue assay; assay type: functional, organism-based
Histone deacetylase 1 = Histone deacetylase 1 (Homo sapiens, UniProt Q13547); assay: Inhibition of human HDAC1 (1 to 482 reidue) expressed in sf9 cells using ZMAL(Cbz-(Ac)Lys-AMC as substrate preincubated for 90 mins followed by trypsin addition and measured after 20 mins by fluorimetric method
Histone deacetylase 1, sequence (Q13547 whole entry): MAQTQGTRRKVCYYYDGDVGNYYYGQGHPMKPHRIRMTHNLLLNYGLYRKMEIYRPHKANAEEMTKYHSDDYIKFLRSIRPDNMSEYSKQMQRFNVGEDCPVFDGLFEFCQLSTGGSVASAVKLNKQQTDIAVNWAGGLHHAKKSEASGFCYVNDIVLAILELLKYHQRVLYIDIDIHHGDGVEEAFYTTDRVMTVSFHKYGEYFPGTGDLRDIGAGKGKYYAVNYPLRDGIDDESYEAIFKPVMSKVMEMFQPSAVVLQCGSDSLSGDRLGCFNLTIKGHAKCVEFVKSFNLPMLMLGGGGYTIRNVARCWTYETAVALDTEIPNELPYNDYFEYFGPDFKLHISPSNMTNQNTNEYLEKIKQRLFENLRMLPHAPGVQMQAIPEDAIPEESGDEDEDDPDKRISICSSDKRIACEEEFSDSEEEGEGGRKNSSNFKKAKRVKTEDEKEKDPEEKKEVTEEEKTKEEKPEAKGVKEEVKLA

Histone deacetylase 8 [14] = target: T2, Histone deacetylase 8 (Schistosoma mansoni, UniProt A5H660); assay: Inhibition of Schistosoma mansoni HDAC8 expressed in Escherichia coli using Fluor de Lys as substrate incubated for 90 mins by fluorescence method
T2 sequence (A5H660 whole entry): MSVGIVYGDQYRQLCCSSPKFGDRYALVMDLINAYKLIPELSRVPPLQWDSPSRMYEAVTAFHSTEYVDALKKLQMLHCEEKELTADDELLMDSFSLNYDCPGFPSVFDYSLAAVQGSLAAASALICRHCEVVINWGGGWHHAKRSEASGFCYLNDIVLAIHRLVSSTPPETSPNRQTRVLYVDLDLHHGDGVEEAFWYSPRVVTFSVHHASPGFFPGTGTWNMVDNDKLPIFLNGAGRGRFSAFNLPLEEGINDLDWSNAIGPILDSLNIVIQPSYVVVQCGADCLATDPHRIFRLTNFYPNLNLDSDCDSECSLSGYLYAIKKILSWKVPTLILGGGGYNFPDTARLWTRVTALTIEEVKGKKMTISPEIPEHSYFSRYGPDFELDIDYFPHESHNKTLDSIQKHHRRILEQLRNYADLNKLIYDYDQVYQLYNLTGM

Schistosoma mansoni [15] = assay: Schistosomicidal-activity against Schistosoma mansoni schistosomula at 20 uM incubated for 48 hrs by Alamar Blue assay relative to control; assay type: functional
Histone deacetylase 8 [16] = target: T3, Histone deacetylase 8 (Homo sapiens, UniProt Q9BY41); assay: Inhibition of human HDAC8 using Fluor de Lys as substrate incubated for 90 mins by fluorescence method
T3 sequence (Q9BY41 whole entry): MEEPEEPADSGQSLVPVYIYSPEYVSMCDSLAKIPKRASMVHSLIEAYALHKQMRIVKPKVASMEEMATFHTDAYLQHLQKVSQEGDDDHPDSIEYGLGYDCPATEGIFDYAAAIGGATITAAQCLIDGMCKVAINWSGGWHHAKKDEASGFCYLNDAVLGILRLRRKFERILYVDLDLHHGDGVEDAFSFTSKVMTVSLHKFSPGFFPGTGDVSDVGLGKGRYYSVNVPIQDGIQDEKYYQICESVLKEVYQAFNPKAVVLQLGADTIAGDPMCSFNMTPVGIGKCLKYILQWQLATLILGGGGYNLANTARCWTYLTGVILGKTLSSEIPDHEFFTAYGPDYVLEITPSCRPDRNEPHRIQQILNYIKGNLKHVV

Schistosoma mansoni [17] = assay: Potentiation of praziquantel-induced antischistosomal activity against Schistosoma mansoni infected in Swiss albino mouse assessed as worm burden at 20 mg/kg, po administered for 5 days (reference value: 60%); assay type: functional; conditions: time 5 day
Schistosoma mansoni [18] = assay: Antischistosomal activity against Schistosoma mansoni infected in Swiss albino mouse assessed as reduction in intestinal tissue egg burden at 20 mg/kg, po administered for 5 days relative to control; assay type: functional; design: scale not given: the % may be the effect or the level left; conditions: time 5 day
Schistosoma mansoni [19] = assay: Antischistosomal activity against male Schistosoma mansoni assessed as worm killing effect at 100 uM measured after 24 hrs by phase-contrast microscopy relative to control; assay type: functional
Schistosoma mansoni [20] = assay: Antischistosomal activity against Schistosoma mansoni infected in Swiss albino mouse assessed as reduction in worm burden at 20 mg/kg, po administered for 5 days relative to control; assay type: functional; design: scale not given: the % may be the effect or the level left; conditions: time 5 day
Schistosoma mansoni [21] = assay: Potentiation of praziquantel-induced antischistosomal activity against Schistosoma mansoni infected in Swiss albino mouse assessed as intestinal egg burden at 20 mg/kg, po administered for 5 days (reference value: 67%); assay type: functional; conditions: time 5 day

Compound: COc1cc([C@@H]2OC(=O)[C@@H]3[C@H]2C(=O)O[C@H]3c2cc(OC)c(O)c(OC)c2)cc(OC)c1O
Activity (Schistosoma mansoni [1]): 100%

Compound: C1CCCCCC2(CCCCC1)OOCCCOO2
pEC50 (Schistosoma mansoni [2]): 7.80
Activity (Schistosoma mansoni [3]): 63%

Compound: CN(C)c1ccc(/C=C2\NC(=O)N(Cc3c(F)cccc3Cl)C2=S)cc1
Activity (Schistosoma mansoni [4]): 100%

Compound: Cc1ccc(-c2cs/c(=N/N=C/CN3C(=O)c4ccccc4C3=O)[nH]2)cc1
pEC50 (Schistosoma mansoni [5]): 5.01
mortality at 100 µg/mL (Schistosoma mansoni [6]): 100%
pEC50 (Schistosoma mansoni [7]): 4.41

pIC50 (Schistosoma mansoni [8]): 6.22
pIC50 (Schistosoma mansoni [9]): 6.70
Compound: O=C(Nc1cc(C(F)(F)F)ccc1Cl)c1ccccc1O

Compound: O=C1c2ccccc2C(=O)N1C/C=N/N=c1\[nH]c(-c2ccccc2)cs1
pEC50 (Schistosoma mansoni [5]): 5.29
pEC50 (Schistosoma mansoni [7]): 4.43
mortality at 100 µg/mL (Schistosoma mansoni [10]): 100%

Compound: CCCCCCCCCCOc1cc2c(O)c(C(=O)NCCN(CC)CC)cnc2cc1OCC
Activity (Schistosoma japonicum): 100%

Compound: Fc1ccc(Cl)cc1-c1nc(Nc2ccncc2)c2nccnc2n1
Activity (Schistosoma mansoni [11]): 51.6%

Compound: O=C(/C=C/c1ccccc1Sc1ccc(Cl)cc1)NO
pIC50 [12]: 5.49
pEC50 (Schistosoma mansoni [13]): 4.93
pIC50 (Histone deacetylase 1): 5.11
pIC50 (Histone deacetylase 8 [14]): 6.74
Activity (Schistosoma mansoni [15]): 97%
pIC50 (Histone deacetylase 8 [16]): 6.74

Compound: COc1ccc(-c2nc(-c3ccccc3OC)[nH]c2-c2ccc(OC)cc2)cc1
Activity (Schistosoma mansoni [17]): 88%
Activity (Schistosoma mansoni [18]): <17%
Activity (Schistosoma mansoni [19]): 33%
Activity (Schistosoma mansoni [20]): <17%
Activity (Schistosoma mansoni [21]): 83%
